Results: patent US8232278B2 (Gilead Sciences, Inc., priority 2005, dated 2012)
Where two headings read alike, the source gives them in different places.

Legend:
HCV replicon = assay: Anti-HCV assay / replicon assay (EC50, luciferase read-out); assay type: cell-based, hepatitis C virus (HCV); conditions: for CC50/EC50: CC50/EC50 ratio (selectivity index); for EC50: Hepatitis C virus
Outline: (§1)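 Huh-7 cells carrying an HCV replicon, 6000 per well, were exposed to 3-fold serial compound dilutions (0.5% DMSO final where DMSO was used) for 3 days at 37 °C. EC50 was read by luciferase after cell lysis; CC50 was taken as 50% inhibition of cell growth.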

[1] = CC50 assay in Huh-7 HCV replicon cells (CellTiter-Glo); assay type: cell-based, human; conditions: human, 50% cytostatic concentration
Outline: as §1

[2] = 72 h, human hepatoma Huh-7 cell line harbouring a HCV replicon, 3 days, luciferase luminescence, read-out: EC50

| Compound | CC50/EC50 (HCV replicon) | EC50 (HCV replicon; [2]) | CC50 at 3 days [1] | EC50 (HCV replicon; Huh-7, 72 h) |
| --- | --- | --- | --- | --- |
| Cc1cccc(NC(=O)N2CCN(c3nc(N)nc4ccc(-c5ccc6c(c5)OCO6)nc34)CC2)c1 [Example 190, 2-amino-4-[N-(3-methyl-phenyl-carbamoyl)-piperazin-1-yl]-6-(3,4-methylenedioxyphenyl)-pyrido[3,2-d]pyrimidine] | 51 | 12 nM | 610 nM |  |
| COc1ccc(-c2ccc3nc(N)nc(N4CCCN(C(=O)Nc5cccc(C)c5)CC4)c3n2)cc1OC [Example 241, 2-amino-4-[(N-3-methylphenylcarbamoyl)-homopiperazin-1-yl]-6-(3,4-dimethoxyphenyl)-pyrido[3,2-d]pyrimidine] | 218 | 11 nM | 2400 nM |  |
| COc1ccc(-c2ccc3nc(N)nc(NC4CCN(C(=O)OC(C)(C)C)CC4)c3n2)cc1OC [Example 246, 2-amino-4-[(1-Boc-piperidin-4-yl)amino]-6-(3,4-dimethoxyphenyl)-pyrido[3,2-d]pyrimidine] | 70 | 22 nM | 1500 nM |  |
| COc1ccc(-c2ccc3nc(N)nc(NC4CCCN(C(=O)OC(C)(C)C)C4)c3n2)cc1OC (stereo not drawn) [Example 247, 2-amino-4-[(1-Boc-piperidin-3-yl)amino]-6-(3,4-dimethoxyphenyl)-pyrido[3,2-d]pyrimidine] | 238 | 22 nM | 5200 nM |  |
| COc1ccc(-c2ccc3nc(N)nc(NC4CCCN(C(=O)Nc5cccc(C)c5)C4)c3n2)cc1OC (stereo not drawn) [Example 254, 2-amino-4-[(3-methylphenylcarbamoylpiperidin-3-yl)amino)-6-(3,4-dimethoxyphenyl]-pyrido[3,2-d]pyrimidine] | 147 | 50 nM | 7300 nM |  |
| COc1ccc(-c2ccc3nc(N)nc(N4CCCC(C(=O)NCC(C)C)C4)c3n2)cc1OC (stereo not drawn) [Example 258, 2-amino-4-[(3-carboxylic acid isobutylamide)-piperidin-1-yl]-6-(3,4-dimethoxyphenyl)-pyrido[3,2-d]pyrimidine] | 56 | 74 nM | 4200 nM |  |
| COc1ccc(-c2ccc3nc(N)nc(N4CCN(CC(=O)NCCc5ccccc5)CC4)c3n2)cc1OC [Example 260, 2-amino-4-[4-(N-2-phenylethylacetamid-2-yl)piperazin-1-yl]-6-(3,4-dimethoxyphenyl)-pyrido[3,2-d]pyrimidine] | 73 | 36 nM | 2600 nM |  |
| COc1ccc(-c2ccc3nc(N)nc(NCCC(=O)N4CCN(C(C)=O)CC4)c3n2)cc1OC [Example 262, 2-amino-4-[3-(4-acetylpiperazin-1-yl)-propan-3-one-1-yl-amino]-6-(3,4-dimethoxyphenyl)-pyrido[3,2-d]pyrimidine] | 261 | 96 nM | 25100 nM |  |
| COc1ccc(-c2ccc3nc(N)nc(N4CCN(CC(=O)N5CCCC5)CC4)c3n2)cc1OC [Example 263, 2-amino-4-(N-pyrrolidinyl-acetamid-2-yl-piperazin-1-yl)-6-(3,4-dimethoxyphenyl)pyrido[3,2-d]pyrimidine] | 102 | 28 nM | 2900 nM |  |
| COc1ccc(-c2ccc3nc(N)nc(N4CCN(CC(=O)N5CCOCC5)CC4)c3n2)cc1OC [Example 265, 2-amino-4-[N-(piperazino)-acetyl-morpholino]-6-(3,4-dimethoxyphenyl)-pyrido[3,2-d]pyrimidine] | 84 | 31 nM | 2600 nM |  |
| CCOc1nc(N)nc2ccc(-c3ccccc3F)nc12 [Example 279, 2-amino-4-ethoxy-6-(o-fluorophenyl)-pyrido[3,2-d]pyrimidine] | 54 | 690 nM | 37500 nM |  |
| CCOc1nc(N)nc2ccc(-c3cccc(F)c3)nc12 [Example 280, 2-amino-4-ethoxy-6-(m-fluorophenyl)-pyrido[3,2-d]-pyrimidine] | 125 | 300 nM | 37500 nM |  |
| CCCOc1nc(N)nc2ccc(-c3ccc(F)cc3)nc12 [Example 283, 2-amino-4-n-propoxy-6-(p-fluorophenyl)-pyrido[3,2-d]pyrimidine] | 221 | 95 nM | 21000 nM |  |
| CC(=O)Nc1nc(OC(C)C)c2nc(-c3ccc(F)cc3)ccc2n1 [Example 285, 2-acetamido-4-isopropoxy-6-(p-fluorophenyl)-pyrido[3,2-d]pyrimidine] | 492 | 51 nM | 25100 nM |  |
| CCCCOc1nc(N)nc2ccc(-c3ccc(F)cc3)nc12 [Example 290, 2-amino-4-n-butoxy-6-(p-fluorophenyl)-pyrido[3,2-d]pyrimidine] | 63 | 340 nM | 21300 nM |  |
| CC(C)COc1nc(N)nc2ccc(-c3ccc(F)cc3)nc12 [Example 293, 2-amino-4-isobutoxy-6-(p-fluorophenyl)-pyrido[3,2-d]pyrimidine] | 68 | 370 nM | 25100 nM |  |
| CCC(C)Oc1nc(N)nc2ccc(-c3ccc(F)cc3)nc12 (stereo not drawn) [Example 296, 2-amino-4-sec. butoxy-6-(p-fluorophenyl)-pyrido[3,2-d]pyrimidine] | 67 | 560 nM | 37500 nM |  |

| Compound | CC50/EC50 (HCV replicon) | EC50 (HCV replicon; [2]) | CC50 at 3 days [1] | EC50 (HCV replicon; Huh-7, 72 h) |
| --- | --- | --- | --- | --- |
| CCCCCOc1nc(N)nc2ccc(-c3cccc(F)c3)nc12 [Example 298, 2-amino-4-n-pentyloxy-6-(m-fluorophenyl)-pyrido[3,2-d]pyrimidine] | 77 | 365 nM | 28000 nM |  |
| Nc1nc(OCC2CC2)c2nc(-c3ccc(F)cc3)ccc2n1 [Example 326, 2-amino-4-(cyclopropylmethyloxy)-6-(4-fluorophenyl)pyrido[3,2-d]pyrimidine] | 254 | 99 nM | 25100 nM |  |
| Nc1nc(OCC(F)(F)F)c2nc(-c3ccc(F)cc3)ccc2n1 [Example 351, 2-amino-4-(trifluoroethoxy)-6-(4-fluorophenyl)-pyrido[3,2-d]pyrimidine] | 132 | 190 nM | 25100 nM |  |
| CC(=O)Nc1ccc(-c2ccc3nc(N)nc(OC(C)C)c3n2)cc1 [Example 355, 2-amino-4-(isopropoxy)-6-(p-acetamidophenyl)-pyrido(3,2-d)pyrimidine] | 120 | 210 nM | 25100 nM |  |
| CC(=O)Nc1ccc(-c2ccc3nc(N)nc(OCC4CC4)c3n2)cc1 [Example 356, 2-amino-4-(cyclopropylmethyloxy)-6-(p-acetamidophenyl)-pyrido(3,2-d)pyrimidine] | 87 | 290 nM | 25100 nM |  |
| Cc1cccc(OCC(=O)N2CCN(c3nc(N)nc4ccc(-c5ccc(F)cc5)nc34)CC2)c1 [Example 370, 2-amino-4-[4-(3-methylphenoxy-acetyl)piperazin-1-yl]-6-(4-fluorophenyl)-pyrido[3,2-d]pyrimidine] | 65 | 52 nM | 3400 nM |  |
| Nc1nc(N2CCN(C(=O)COc3cccc(Cl)c3)CC2)c2nc(-c3ccc(F)cc3)ccc2n1 [Example 371, 2-amino-4-[4-(3-chlorophenoxy-acetyl)piperazin-1-yl]-6-(4-fluorophenyl)-pyrido[3,2-d]pyrimidine] | 837 | 30 nM | 25100 nM |  |
| Nc1nc(N2CCN(C(=O)COc3ccc(Cl)cc3Cl)CC2)c2nc(-c3ccc(F)cc3)ccc2n1 [Example 372, 2-amino-4-[4-(2,4-dichlorophenoxy-acetyl)piperazin-1-yl]-6-(4-fluorophenyl)-pyrido[3,2-d]pyrimidine] | 78 | 320 nM | 25100 nM |  |
| Nc1nc(N2CCN(C(=O)COc3ccc(F)cc3)CC2)c2nc(-c3ccc(F)cc3)ccc2n1 [Example 373, 2-amino-4-[4-(4-fluorophenoxy-acetyl)piperazin-1-yl]-6-(4-fluorophenyl)-pyrido[3,2-d]pyrimidine] | 148 | 130 nM | 19200 nM |  |
| COCCSc1nc(N)nc2ccc(-c3ccc(F)cc3)nc12 [Example 395] | 278 |  | 13600 nM | 49 nM |
| COCCNc1nc(NC(C)=O)nc2ccc(-c3ccc(F)cc3)nc12 [Example 398, 2-acetamido-4-(2-methoxy-ethylamino)-6-(4-fluorophenyl)pyrido[3,2-d]pyrimidine] | 61 | 410 nM | 25100 nM |  |
| CCNc1nc(N)nc2ccc(-c3ccc(F)cc3)nc12 [Example 402, 2-amino-4-ethylamino-6-(4-fluorophenyl)pyrido[3,2-d]pyrimidine] | 80 | 376 nM | 30000 nM |  |
| Nc1nc(OCCF)c2nc(-c3ccc(F)cc3)ccc2n1 [Example 417, 2-amino-4-(2-fluoro-ethoxy)-6-(4-fluorophenyl)pyrido[3,2-d]pyrimidine] | 2282 | 11 nM | 25100 nM |  |
| COCCOc1nc(N)nc2ccc(-c3ccc(OC)c(OC)c3)nc12 [Example 471, 6-(3,4-dimethoxy-phenyl)-4-(2-methoxy-ethoxy)-pyrido[3,2-d]pyrimidin-2-ylamine] | 66 |  | 25100 nM | 380 nM |
| CC(=O)Nc1ccc(-c2ccc3nc(N)nc(N4CCOCC4)c3n2)cc1 [Example 500, N-[4-(2-amino-4-morpholin-4-yl-pyrido[3,2-d]pyrimidin-6-yl)-phenyl]-acetamide] | 735 | 49 nM | 36000 nM |  |
| CC(C)C(=O)Nc1ccc(-c2ccc3nc(N)nc(N4CCOCC4)c3n2)cc1 [Example 501, N-[4-(2-amino-4-morpholin-4-yl-pyrido[3,2-d]pyrimidin-6-yl)-phenyl]-isobutyramide] | 149 | 49 nM | 7300 nM |  |
